Experimental data published in ChEMBL document CHEMBL3886685, “Nitrogen-containing bicyclic aromatic heterocyclic compound” (2016).

Target: Cathepsin S (Homo sapiens, UniProt P25774)
Assay: Inhibition Assay: 5 μL of a human cathepsin S enzyme (R&D1183-CY-010) was added to a 96-well plate so as to be 20 ng/well. Next, 10-fold dilution of the test compound (a 10 mM DMSO solution) was serially performed with a buffer solution for assay (a solution of 50 mM sodium methoxide, 250 mM sodium chloride and 5 mM dithiothreitol (DTT), adjusted to pH=4.5 with 1 N hydrochloric acid) six times such that the final concentration becomes 0.1 nM to 10 μM then, 20 μL of each of the solutions was added to the wells (the final DMSO concentration was 0.1%), and 25 μL of synthetic substrate VVR-AMC (3211-V manufactured by PEPTIDE […], INC.) was added thereto such that the final concentration becomes 40 μM, thereby starting a enzyme reaction. A fluorescence intensity (an excitation wavelength: 380 nm and a fluorescent wavelength: 460 nm) was measured at 37° C. for 10 minutes immediately after the start of the reaction using a fluorescence spectrophotometer (SPECTRA MAX GEMINI, manu

Chain of Cathepsin S (P25774 whole entry): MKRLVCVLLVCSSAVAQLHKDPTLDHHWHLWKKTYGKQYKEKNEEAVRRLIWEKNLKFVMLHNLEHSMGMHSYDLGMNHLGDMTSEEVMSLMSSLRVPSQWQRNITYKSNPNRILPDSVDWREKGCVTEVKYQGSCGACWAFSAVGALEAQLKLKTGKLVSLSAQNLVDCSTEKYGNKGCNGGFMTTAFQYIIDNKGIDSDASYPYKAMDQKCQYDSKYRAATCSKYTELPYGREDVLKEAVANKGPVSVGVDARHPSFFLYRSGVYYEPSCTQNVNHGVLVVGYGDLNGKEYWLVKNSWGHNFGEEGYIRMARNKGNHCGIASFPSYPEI

SMILES | IC50
N#Cc1nc(-c2ccc(OCCC3CCN(CCO)CC3)c(C(F)(F)F)c2)c2ccn(CC3CCCO3)c2n1 (stereo unspecified) | 3.2 nM
CN1CCC[C@@H]1C(=O)N1CCC(CCOc2ncc(-c3nc(C#N)nc4c3ncn4C)cc2C(F)(F)F)CC1 | 1 nM
CCOc1ccc(-c2nc(C#N)nc3c2ccn3CC(=O)NC2CCN(C)CC2)cc1C(F)(F)F | 2.9 nM
N#Cc1nc(-c2cnc(OCCC3CCNCC3)c(C(F)(F)F)c2)c2ccn(CC3CCOC3)c2n1 (stereo unspecified) | 3.4 nM
Cn1cnc2c(-c3ccc(OCCC4CCNCC4)c(C(F)(F)F)c3)nc(C#N)nc21 | 1.7 nM
Cn1cnc2c(-c3ccc(OCCC4CCN(CC(=O)N5CCCC5)CC4)c(C(F)(F)F)c3)nc(C#N)nc21 | 1.6 nM
CCN1CCC(CCOc2ccc(-c3nc(C#N)nc4c3ccn4C)cc2C(F)(F)F)C1 (stereo unspecified) | 2.1 nM
CN1CCC[C@H]1C(=O)N1CC(COc2ccc(-c3nc(C#N)nc4c3ccn4C)cc2C(F)(F)F)C1 | 2.1 nM
Cn1c(C(F)(F)F)nc2c(-c3cnc(OCCC4CCNCC4)c(C(F)(F)F)c3)nc(C#N)nc21 | 3.3 nM
N#Cc1nc(-c2ccc(OCCC3CCNCC3)c(C(F)(F)F)c2)c2ccn(C3CCOCC3)c2n1 | 2.6 nM
Cn1cnc2c(-c3cnc(OCCC4CCNCC4)c(C(F)(F)F)c3)nc(C#N)nc21 | 1.4 nM
CCN1CCC(CCOc2ncc(-c3nc(C#N)nc4c3ncn4CC3CCOC3)cc2C(F)(F)F)CC1 (stereo unspecified) | 2 nM
CN1CCC[C@@H]1C(=O)N1CC[C@@H](OCCOc2ncc(-c3nc(C#N)nc4c3ccn4C)cc2C(F)(F)F)C1 | 2.4 nM
N#Cc1nc(-c2ccc(OCCC3CCNCC3)c(C(F)(F)F)c2)c2ccn(CC3CCCO3)c2n1 (stereo unspecified) | 2.6 nM
Cc1nnc(CN2CCC(CCOc3ccc(-c4nc(C#N)nc5c4ncn5C)cc3C(F)(F)F)CC2)o1 | 2.3 nM
CCN1CCC(OCCOc2ccc(-c3nc(C#N)nc4c3ccn4C)cc2C(F)(F)F)CC1 | 2 nM
CN(C)C(=O)CN1CCC(CCOc2ncc(-c3nc(C#N)nc4c3ccn4C)cc2C(F)(F)F)CC1 | 2.2 nM
Cn1ccc2c(-c3ccc(OCCOC4CCNCC4)c(C(F)(F)F)c3)nc(C#N)nc21 | 2.1 nM
N#Cc1nc(-c2ccc(OCCC3CCOCC3)c(C(F)(F)F)c2)c2ccn(CC(=O)N3CCC(CN4CCCC4)CC3)c2n1 | 2.5 nM
CN1CCC(N(C)C(=O)Cn2ccc3c(-c4ccc(OCCC5CCOCC5)c(C(F)(F)F)c4)nc(C#N)nc32)C1 (stereo unspecified) | 2.2 nM
CN1CCC(C(=O)N2CCC(CCOc3ccc(-c4nc(C#N)nc5c4ncn5C)cc3C(F)(F)F)CC2)C1 (stereo unspecified) | 2.3 nM
Cn1cnc2c(-c3ccc(OCCC4CCN(C(=O)CO)CC4)c(C(F)(F)F)c3)nc(C#N)nc21 | 6.1 nM
CCN1CCC(CCOc2ccc(-c3nc(C#N)nc4c3ncn4C)cc2C(F)(F)F)CC1 | 1.2 nM
CN1CCC[C@H]1C(=O)N1CCCC(COc2ccc(-c3nc(C#N)nc4c3ccn4C)cc2C(F)(F)F)C1 (stereo partly specified) | 3.6 nM
CN1CCC[C@H]1C(=O)N1CCC(CCOc2ccc(-c3nc(C#N)nc4c3ccn4C)cc2C(F)(F)F)C1 (stereo partly specified) | 2.3 nM
CCN1CCC(CCOc2ccc(-c3nc(C#N)nc4c3ccn4CC(N)=O)cc2C(F)(F)F)CC1 | 2 nM

SMILES | IC50
Cn1ccc2c(-c3ccc(OCC4CNC4)c(C(F)(F)F)c3)nc(C#N)nc21 | 4.5 nM
CCN1CCC(C)(COc2ccc(-c3nc(C#N)nc4c3ccn4C)cc2C(F)(F)F)CC1 | 3.8 nM
Cn1ccc2c(-c3ccc(SCCC4CCNCC4)c(C(F)(F)F)c3)nc(C#N)nc21 | 1.7 nM
N#Cc1nc(-c2ccc(OCCC3CCNCC3)c(C#N)c2)c2ccn(CC3CCOC3)c2n1 (stereo unspecified) | 3.3 nM
CCN1CCC(CCOc2ncc(-c3nc(C#N)nc4c3ccn4CC3CCOC3)cc2C(F)(F)F)CC1 (stereo unspecified) | 2.6 nM
N#Cc1nc(-c2cnc(OCCC3CCNCC3)c(C(F)(F)F)c2)c2ccn(CC3CCOCC3)c2n1 | 3.5 nM
CCN1CCC(CCOc2ncc(-c3nc(C#N)nc4c3ncn4C)cc2C(F)(F)F)CC1 | 1 nM
CCN1CCC(CCOc2ccc(-c3nc(C#N)nc4c3ccn4CC)cc2C(F)(F)F)CC1 | 3.7 nM
CCN1CCC(CCOc2ncc(-c3nc(C#N)nc4c3ccn4CC3CCOCC3)cc2C(F)(F)F)CC1 | 3.2 nM
CCN1CCC(CCOc2ccc(-c3nc(C#N)nc4c3ccn4CC3CCOC3)cc2C#N)CC1 (stereo unspecified) | 2.7 nM
N#Cc1nc(-c2ccc(OCC3CCNCC3)c(C(F)(F)F)c2)c2ccn(CC3CCOC3)c2n1 (stereo unspecified) | 1.9 nM
CN1CCC[C@H]1C(=O)N1CCC(CCOc2ccc(-c3nc(C#N)nc4c3ncn4C)cc2C(F)(F)F)CC1 | 3.5 nM
Cn1cnc2c(-c3cnc(OCCC4CCN(C5CCC5)CC4)c(C(F)(F)F)c3)nc(C#N)nc21 | 2 nM
CN1CCC[C@H]1C(=O)N1CCC(CCOc2ccc(-c3nc(C#N)nc4c3ccn4C3COC3)cc2C(F)(F)F)CC1 | 3.3 nM
N#Cc1nc(-c2ccc(OCCC3CCNCC3)c(C(F)(F)F)c2)c2cc[nH]c2n1 | 2.2 nM
Cn1cnc2c(-c3ccc(OCCC4CCN(CCO)CC4)c(C(F)(F)F)c3)nc(C#N)nc21 | 0.76 nM
Cn1cnc2c(-c3ccc(OCCC4CCN(CC#N)CC4)c(C(F)(F)F)c3)nc(C#N)nc21 | 2.7 nM
CCN1CCC(CCOc2ccc(-c3nc(C#N)nc4c3ccn4CCO)cc2C(F)(F)F)CC1 | 2.3 nM
N#Cc1nc(-c2ccc(OCCC3CCNCC3)c(C(F)(F)F)c2)c2ccn(C3CCOC3)c2n1 (stereo unspecified) | 2.8 nM
CN(C)C(=O)CN1CCCC(COc2ccc(-c3nc(C#N)nc4c3ccn4C)cc2C(F)(F)F)C1 (stereo unspecified) | 4 nM
CCN1CC(COc2ccc(-c3nc(C#N)nc4c3ccn4C)cc2C(F)(F)F)C1 | 3.1 nM
CN1CCC[C@H]1C(=O)N1CCC(CCOc2ncc(-c3nc(C#N)nc4c3ccn4C)cc2C(F)(F)F)CC1 | 4.8 nM
CCN1CCC(CCOc2ccc(-c3nc(C#N)nc4c3ccn4C3COC3)cc2C(F)(F)F)CC1 | 2.9 nM
CCN1CCC(CCOc2ccc(-c3nc(C#N)nc4c3ncn4CC3CCOC3)cc2C(F)(F)F)CC1 (stereo unspecified) | 2.2 nM
Cn1cnc2c(-c3ccc(OCCC4CCN(CC(=O)N5CCC(C#N)CC5)CC4)c(C(F)(F)F)c3)nc(C#N)nc21 | 2.1 nM
Cn1ccc2c(-c3ccc(OCCC4CCNC4)c(C(F)(F)F)c3)nc(C#N)nc21 (stereo unspecified) | 1.3 nM

SMILES | IC50
CCN1CCC(CCOc2ccc(-c3nc(C#N)nc4c3ccn4CC3CCOC3)cc2C(F)(F)F)CC1 (stereo unspecified) | 3.9 nM
Cn1ccc2c(-c3cnc(OCCC4CCNCC4)c(C(F)(F)F)c3)nc(C#N)nc21 | 2.5 nM
Cn1ccc2c(-c3ccc(OCC4(C)CCNCC4)c(C(F)(F)F)c3)nc(C#N)nc21 | 3.6 nM
Cn1cnc2c(-c3ccc(OCCC4CCN(CC(=O)N5CCC(F)(F)C5)CC4)c(C(F)(F)F)c3)nc(C#N)nc21 | 2.4 nM
CCN1CCC(CCOc2ncc(-c3nc(C#N)nc4c3ccn4CC(=O)N3CCOCC3)cc2C(F)(F)F)CC1 | 2.4 nM
CN1CCC[C@H]1C(=O)N1CCC(CCOc2ccc(-c3nc(C#N)nc4c3ccn4CC3CCOC3)cc2C#N)CC1 (stereo partly specified) | 7.8 nM
Cn1ccc2c(-c3ccc(OCCC4CC5CCC(C4)N5)c(C(F)(F)F)c3)nc(C#N)nc21 (stereo unspecified) | 3.6 nM
CCN1CCC(CCOc2ncc(-c3nc(C#N)nc4c3ccn4C)cc2C(F)(F)F)CC1 | 1.9 nM
CCN1CCC(COc2ccc(-c3nc(C#N)nc4c3ccn4CC3CCOC3)cc2C(F)(F)F)CC1 (stereo unspecified) | 2.8 nM
CN1CCC[C@H]1C(=O)N1CCC(CCOc2ncc(-c3nc(C#N)nc4c3ncn4CC3CCOC3)cc2C(F)(F)F)CC1 (stereo partly specified) | 1.4 nM
CN1CCC[C@H]1C(=O)N1CCC(CCOc2ccc(-c3nc(C#N)nc4c3ccn4CC3CCOC3)cc2C(F)(F)F)CC1 (stereo partly specified) | 4.7 nM
CN1CCC[C@H]1C(=O)N1CCC(COc2ccc(-c3nc(C#N)nc4c3ccn4CC3CCOC3)cc2C(F)(F)F)CC1 (stereo partly specified) | 2.2 nM
Cn1ccc2c(-c3cnc(OCCC4CCCNC4)c(C(F)(F)F)c3)nc(C#N)nc21 (stereo unspecified) | 2.7 nM
Cn1ccc2c(-c3cnc(OCC4CCN(C(=O)C5CCN(CC(C)(C)O)CC5)CC4)c(C(F)(F)F)c3)nc(C#N)nc21 | 2.1 nM
Cn1cnc2c(-c3ccc(OCCC4CCN(CC(=O)N5CC[C@H](F)C5)CC4)c(C(F)(F)F)c3)nc(C#N)nc21 | 1.7 nM
CCN1CCCC(COc2ccc(-c3nc(C#N)nc4c3ccn4C)cc2C(F)(F)F)C1 (stereo unspecified) | 3 nM
CC(C)N1CCC(CCOc2ccc(-c3nc(C#N)nc4c3ccn4CC3CCOC3)cc2C#N)CC1 (stereo unspecified) | 4.3 nM
CN1CCC[C@H]1C(=O)N1CCC(CCOc2ncc(-c3nc(C#N)nc4c3ncn4C)cc2C(F)(F)F)CC1 | 3.1 nM
CCN1CCN(C(=O)COc2ccc(-c3nc(C#N)nc4c3ncn4C)cc2C(F)(F)F)CC1 | 2.6 nM
Cn1ccc2c(-c3ccc(OCCC4CCN(C(C)(C)C)CC4)c(C(F)(F)F)c3)nc(C#N)nc21 | 2 nM
Cn1cnc2c(-c3ccc(OCC(=O)N4CCNCC4)c(C(F)(F)F)c3)nc(C#N)nc21 | 8.9 nM
CN(C)C(=O)CN1CCC(CCOc2ccc(-c3nc(C#N)nc4c3ccn4CC3CCOC3)cc2C(F)(F)F)CC1 (stereo unspecified) | 2.9 nM
Cn1ccc2c(-c3ccc(OCC4CCCNC4)c(C(F)(F)F)c3)nc(C#N)nc21 (stereo unspecified) | 3.1 nM
N#Cc1nc(-c2ccc(OCCC3CCNCC3)c(C(F)(F)F)c2)c2ccn(CC3CCOC3)c2n1 (stereo unspecified) | 1.9 nM
